# Experimental data from paper PMC7356228, “Alvaxanthone, a Thymidylate Synthase Inhibitor with Nematocidal and Tumoricidal Activities” (Molecules, 2020).
# Columns and labels:
# [1] = tested on: human oral squamous carcinoma cells (HSC-2 cell line); design: method as in Hou et al. [41]; settings: 24 h incubation; ref Hou et al. [41]; cited from earlier work
# TsTS = TsTS (Trichinella spiralis, UniProt Q9NDD3); experiment: Inhibition of TS-catalyzed reaction (tritium release from [5-3H]dUMP); format: biochemical, T. spiralis; settings: for remaining activity at 10 µM: compound 10 µM; for remaining activity at 10 µM / remaining activity at 100 µM: 20 µM dUMP; for remaining activity at 100 µM: compound 100 µM
# Source text: (§1) The recombinant human, rat, mouse, T. spiralis and C. elegans TS proteins were produced, purified and separated into phosphorylated and non-phosphorylated fraction, as previously described. TS activity was monitored, following tritium release from [5-^3H]dUMP, and its inhibition studied as earlier reported.
# [2] = tested on: thymidylate synthase (TS); experiment: Time dependence of TS inhibition (initial results); format: biochemical; settings: suggesting slow-binding character
# Source text: as §1
# U-118 MG cells = experiment: Intracellular ATP level (CellTiterGlo); format: cell-based, human; settings: 48-h incubation, glioma cells
# Description: (§2) Figure 4 Changes of caspase-3/7 activities and intracellular ATP level in BJ, U-118 MG, and SCC-15 cells after 48-h incubation with 5–40 µM alvaxanthone or rheediaxanthone B. Median results are presented of three independent experiments, each performed in triplicate. The whiskers are lower (25%) and upper (75%) quartile ranges.
# (§3) On the other hand, rheediaxanthone B caused a reduction of ATP level down to around 30% in glioma cells and fibroblasts, and to 20% in squamous carcinoma cells (Figure 4). In general, with increasing Caspase-3/7 activity the ATP level was decreasing, in accord with the results of Reference.
# (§4) Influence of selected compounds on cells was tested by performing the cytotoxicity (NR and XTT) assays, proliferation assay, cell adhesion assay, cell migration assay, determination of intracellular ATP level, and apoptosis assay as previously reported.
# SCC-15 cells = experiment: Intracellular ATP level (CellTiterGlo); format: cell-based, human; settings: 48-h incubation, SCC-15
# Description: as §2, §3, §4
# BJ cells = experiment: Intracellular ATP level (CellTiterGlo); format: cell-based, human; settings: 48-h incubation, normal fibroblasts
# Description: as §2, §3, §4
# CeTS = molecular target: T1, CeTS (Caenorhabditis elegans, UniProt Q9Y052); experiment: Inhibition of TS-catalyzed reaction (tritium release from [5-3H]dUMP); format: biochemical, C. elegans; settings: 20 µM dUMP, 250 µM meTHF
# T1 sequence (Q9Y052 1-315): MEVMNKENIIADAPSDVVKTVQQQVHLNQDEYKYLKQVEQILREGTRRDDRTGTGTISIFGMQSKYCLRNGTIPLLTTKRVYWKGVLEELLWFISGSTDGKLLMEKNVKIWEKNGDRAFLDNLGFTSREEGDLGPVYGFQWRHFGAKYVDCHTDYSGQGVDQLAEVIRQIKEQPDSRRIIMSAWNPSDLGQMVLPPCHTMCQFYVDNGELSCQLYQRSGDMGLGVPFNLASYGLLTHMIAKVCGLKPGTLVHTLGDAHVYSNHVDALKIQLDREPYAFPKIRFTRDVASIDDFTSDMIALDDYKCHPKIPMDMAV
# Source text: as §1
# Chain of TsTS (Q9NDD3 entry or part of it): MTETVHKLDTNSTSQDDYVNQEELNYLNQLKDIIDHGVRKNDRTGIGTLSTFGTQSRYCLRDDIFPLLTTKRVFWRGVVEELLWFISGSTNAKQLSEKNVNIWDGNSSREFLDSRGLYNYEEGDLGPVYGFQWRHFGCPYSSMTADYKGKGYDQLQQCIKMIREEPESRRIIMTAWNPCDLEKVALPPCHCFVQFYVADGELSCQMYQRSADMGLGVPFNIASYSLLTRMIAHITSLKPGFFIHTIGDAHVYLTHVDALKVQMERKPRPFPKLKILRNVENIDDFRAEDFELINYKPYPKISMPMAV
structure (smiles),measurement,setting,value
"C=CC(C)(C)c1c(O)cc2oc3c(O)c(O)cc(CC=C(C)C)c3c(=O)c2c1O [Alvaxanthone (15), Alvaxanthone]",IC50,[1],22 µM
same,IC50,"TsTS; IC50, 20 µM dUMP and 50 µM meTHF, mean ± S.E.M. (N=3) for alvaxanthone, rheediaxanthone B not repeated",41.9 ± 8.1 µM
same,remaining activity at 10 µM,TsTS; 50 µM meTHF,97%
same,remaining activity at 10 µM,TsTS; 250 µM meTHF,98%
same,remaining activity at 100 µM,TsTS; 50 µM meTHF,14%
same,remaining activity at 100 µM,TsTS; 250 µM meTHF,47%
same,character of inhibition,[2],time-dependent inhibition
same,change of ATP level,U-118 MG cells,unaltered
same,change of ATP level,SCC-15 cells,dramatically reduced
same,change of ATP level,BJ cells,slight decrease
same,remaining activity at 10 µM,CeTS; compound 10 µM,85%
same,remaining activity at 100 µM,"CeTS; compound 100 µM, read-out: % Remaining Activity",18%
